Literature values, collected in US20260276655A1, “BIOMARKERS OF AMYOTROPHIC LATERAL SCLEROSIS AND USES THEREOF” (The Methodist Hospital, priority 2023, published 2026).

Columns and labels:
ALS patients = conditions: administered to ALS patients
[1] = normal physiological conditions

half-life [1]	SMILES	outcome of phase 3 clinical trial (ALS patients)
–	CO/N=C(\C(=O)N[C@@H]1C(=O)N2C(C(=O)O)=C(CSc3nc(=O)c(=O)[nH]n3C)CS[C@H]12)c1csc(N)n1 [ceftriaxone, (6R,7R)-7-[[(2Z)-2-(2-amino-1,3-thiazol-4-yl)-2-methoxyiminoacetyl]amino]-3-[(2-methyl-5,6-dioxo-1H-1,2,4-triazin-3-yl)sulfanylmethyl]-8-ox o-5-thia-1-azabicyclo[4.2.0]oct-2-ene-2-carboxylic acid]	failed
less than 2 minutes	CCCCCC(O)/C=C/C=O (centres unmarked) [4-HNE, 4-hydroxynonenal]	–
